Data reported in patent US4138488A, “Diphenylmethyl picolinic acid derivatives and their use as anti-acne agents” (Schering Corporation, priority 1977, dated 1979).

Test: In vivo topical activity

| Structure (SMILES) | in vivo topical activity |
| --- | --- |
| Oc1c(Cl)cc(Cl)c(Cl)c1Cc1c(O)c(Cl)cc(Cl)c1Cl [hexachlorophene] | neither hexachlorophene nor tetracycline exhibit substantial in vivo topical activity |
| CN(C)C1C(=O)C(C(N)=O)=C(O)C2(O)C(=O)C3=C(O)c4c(O)cccc4C(C)(O)C3CC12 (centres unmarked) [tetracycline] | neither hexachlorophene nor tetracycline exhibit substantial in vivo topical activity |
